The source of these data is paper PMC9612427 (Journal of the American Chemical Society, 2022).

SMILES strings stand for the structures. Where only a bound is given, the exact number is not on record here.

Data set [1] concerns V600E BRAF tumors in the brain. As to conditions: cited from earlier work.
For a further data set, the target named is P-glycoprotein (MDR1) (Homo sapiens, UniProt P08183). Description: MDR1-MDCK transwell assay. To be noted: for efflux ratio (ER): 10 μM compound, 90 min, substrate when ER ≥ 2.0.
Data set [2] has as its target P-gp (Homo sapiens, UniProt P08183). Put plainly: calcein-AM P-gp inhibition assay in MDR1-MDCK cells. The data set is classed as cell-based.
A short description of data set [3]: BBB penetrance: brain and serum drug levels after single IV injection. The class given is in vivo, mice. As to conditions: for Kp at 60 min: mouse, brain and serum, iv, 25 mg/kg.
The subject of data set [4] is MAPK signaling (phospho-MEK1/2, phospho-ERK1/2) in A375 cells. Description: MEK1/2 and ERK1/2 phosphorylation. The data set is classed as cell-based. As to conditions: for inhibition of ERK1/2 phosphorylation after 24 h: highest concentrations (10 μM).
Data set [5] deals with intracranially implanted A375 melanoma cells. Put plainly: A375 intracranial mouse model of metastatic melanoma. The class given is in vivo. As to conditions: 50 mg/kg IP once a day, two cycles of 5 days, 10 doses; athymic nude mice.
Data set [6] relates to P-gp. Put plainly: P-gp in vivo assay. To be noted: mice.
The subject of data set [7] is V600E BRAF melanoma cell lines. Put plainly: 72 h cell viability assay, panel of V600E BRAF melanoma cell lines. The class given is cell-based. As to conditions: read-out: IC50, panel of V600E BRAF melanoma cell lines.
The subject of the next data set is cell lines with WT BRAF. Description: 72 h cell viability assay, cell lines with WT BRAF. The class given is cell-based. To be noted: read-out: IC50, cell lines with WT BRAF.
Data set [8] relates to MAPK signaling in CHL-1, a WT BRAF melanoma cell line. Put plainly: MEK1/2 and ERK1/2 phosphorylation. The class given is cell-based. To be noted: CHL-1 (WT BRAF), 1 h, identical treatment.
In data set [9] the test system is AM-38 (V600E BRAF) and U118MG, T98G, U87 (WT BRAF) glioma cell lines. Put plainly: cell culture cytotoxicity against glioma cell lines. The class given is cell-based.

Chain of P-glycoprotein (MDR1) (P08183 whole entry): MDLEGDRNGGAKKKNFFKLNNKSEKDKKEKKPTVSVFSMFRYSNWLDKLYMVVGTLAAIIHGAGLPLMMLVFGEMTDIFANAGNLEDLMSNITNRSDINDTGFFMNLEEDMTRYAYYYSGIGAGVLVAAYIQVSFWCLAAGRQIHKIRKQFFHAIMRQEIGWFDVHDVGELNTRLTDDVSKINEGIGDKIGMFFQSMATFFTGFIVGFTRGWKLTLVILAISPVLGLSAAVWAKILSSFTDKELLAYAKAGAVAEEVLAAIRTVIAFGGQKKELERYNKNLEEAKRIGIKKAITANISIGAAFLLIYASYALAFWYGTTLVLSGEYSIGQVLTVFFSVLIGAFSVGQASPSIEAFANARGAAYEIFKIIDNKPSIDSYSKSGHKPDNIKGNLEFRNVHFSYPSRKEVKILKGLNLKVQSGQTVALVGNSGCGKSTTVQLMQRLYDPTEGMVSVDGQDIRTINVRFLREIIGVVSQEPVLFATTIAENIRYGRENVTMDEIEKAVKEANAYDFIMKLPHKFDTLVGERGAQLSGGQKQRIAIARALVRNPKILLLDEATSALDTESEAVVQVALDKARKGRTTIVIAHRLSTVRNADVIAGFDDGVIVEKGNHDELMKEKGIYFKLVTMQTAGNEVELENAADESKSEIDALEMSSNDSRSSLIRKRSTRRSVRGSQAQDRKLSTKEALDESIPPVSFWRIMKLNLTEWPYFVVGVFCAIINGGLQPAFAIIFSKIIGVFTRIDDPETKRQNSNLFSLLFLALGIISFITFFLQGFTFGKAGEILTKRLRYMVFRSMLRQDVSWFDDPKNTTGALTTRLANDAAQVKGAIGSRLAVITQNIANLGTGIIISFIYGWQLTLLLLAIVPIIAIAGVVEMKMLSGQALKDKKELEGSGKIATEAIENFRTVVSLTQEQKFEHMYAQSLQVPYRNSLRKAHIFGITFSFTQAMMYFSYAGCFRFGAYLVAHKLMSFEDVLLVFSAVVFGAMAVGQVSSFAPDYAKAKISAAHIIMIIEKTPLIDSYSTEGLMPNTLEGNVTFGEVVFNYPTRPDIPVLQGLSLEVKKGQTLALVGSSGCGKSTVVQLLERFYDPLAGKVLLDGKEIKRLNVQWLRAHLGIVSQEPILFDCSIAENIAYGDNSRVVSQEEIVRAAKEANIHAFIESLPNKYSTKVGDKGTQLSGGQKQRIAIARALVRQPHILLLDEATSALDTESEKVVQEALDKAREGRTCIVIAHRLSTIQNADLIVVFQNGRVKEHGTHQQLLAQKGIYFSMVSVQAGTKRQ
Chain of P-gp (Homo sapiens, UniProt P08183) (P08183 whole entry): as above

Take `CCCS(=O)(=O)Nc1ccc(F)c(C(=O)c2c[nH]c3ncc(-c4ccc(Cl)cc4)cc23)c1F` [vemurafenib]: the patients responding entry in [1] (pleomorphic xanthoastrocytoma patients, histology agnostic trial) is “four out of seven”. The “efflux ratio (ER)” value at P-glycoprotein (MDR1) (MDR1-MDCK transwell) is recorded as “high ERs”.
Regarding `COc1cc2nc(N3CCN(C(=O)c4ccco4)CC3)nc(N)c2cc1OC` [prazosin], the “efflux ratio (ER)” value on P-glycoprotein (MDR1) (MDR1-MDCK transwell) is listed as “high ERs”.
Consider `C=C[C@H]1C[N@@]2CC[C@H]1C[C@@H]2[C@@H](O)c1ccnc2ccc(OC)cc12` [quinidine], for which the “P-gp inhibition (calcein-AM fluorescence)” value at P-gp [2] is “robust inhibition”. The “efflux ratio (ER)” value at P-glycoprotein (MDR1) (MDR1-MDCK transwell) is listed as “high ERs”.
As usually defined, the Papp is a coefficient for how fast a substance crosses the barrier. A higher Papp goes with ready permeation. `CC(C)(C)c1ccc(C(O)CCCN2CCC(C(O)(c3ccccc3)c3ccccc3)CC2)cc1` (stereo not shown) [terfenadine] yielded a Papp at 90 min, 10 μM on P-glycoprotein (MDR1) (human, MDCK-MDR1) of 1.2 ×10⁻⁶ cm/s.
Take `COc1cc2c(cc1OC)CN(CCc1ccc(NC(=O)c3cccc4c(=O)c5cccc(OC)c5[nH]c34)cc1)CC2` [elacridar]: the “P-gp inhibition (calcein-AM fluorescence)” value on P-gp [2] is on record as “robust inhibition”.
What is called Kp is the ratio of the level in a tissue or fluid to that in plasma or blood. In the case of `COC(=O)N[C@@H](C)CNc1nccc(-c2cn(C(C)C)nc2-c2cc(Cl)cc(NS(C)(=O)=O)c2F)n1` [encorafenib], the Kp at 60 min in data set [3] was in the range of 0.0014 to 0.0069.
Turning to `Cn1cnc2c(F)c(Nc3ccc(Br)cc3F)c(C(=O)NOCCO)cc21` [binimetinib], the “efflux ratio (ER)” value at P-glycoprotein (MDR1) (MDR1-MDCK transwell) is “high ERs”.
In the case of `CCCS(=O)(=O)Nc1ccc(F)c(C(=O)c2c[nH]c3ncc(Cl)cc23)c1F` [PLX4720], the “inhibition of ERK1/2 phosphorylation after 24 h” value (“inhibition … after 24 h” below) in data set [4] was “diminished inhibition”. This compound also returned a Kp at 60 min in [3] of 0.0014 to 0.0069.
Take `CC(C)(C)c1nc(-c2cccc(NS(=O)(=O)c3c(F)cccc3F)c2F)c(-c2ccnc(N)n2)s1` [dabrafenib]: the “inhibition … after 24 h” value in data set [4] was “diminished inhibition”. In data set [3], this compound displayed a partition ratio (Kp) at 60 min of 0.0014 to 0.0069. Also, the median survival in [5] is given as 39 days. The “duration of intracranial response” value in [1] (combined with trametinib, melanoma brain metastases, clinical trials) was 6.5 months. The “fold increase of brain-to-serum ratio by P-gp inhibition (elacridar)” value in the data set with P-gp [6] (15 min, 2.5 mg/kg elacridar IV 30 min before 25 mg/kg compound IV) worked out at 4.3 fold.
By IC50 is commonly meant the concentration at which inhibition is half-maximal. Regarding `CCCS(=O)(=O)Nc1cc(Cl)cc(-c2nc(C(C)(C)C)sc2-c2ccnc(N)n2)c1F` [everafenib], the figures for the IC50 (in data set [7]; in the data set on cell lines with WT BRAF) were 2 to 10 nM and more than 1000 nM, respectively. Further, the “inhibition of MAPK signaling (MEK1/2 and ERK1/2 phosphorylation)” value in data set [4] (1 h, 1 μM everafenib, 10 μM everafenib-CO2H) was “strongly inhibited”. In data set [4], the “inhibition … after 24 h” value is listed as “sustained”. In addition, the “inhibition of MAPK signaling” value in data set [8] is listed as “not observed”. Besides, the brain-to-serum ratio in data set [3] (mice, 60 min after single 25 mg/kg IV injection) is listed as 0.286 ng/g:ng/mL. Also, in data set [5], the median survival was determined as 50.5 days. Besides, in [9] (AM-38, glioblastoma cell line with V600E BRAF), the “cytotoxicity against AM-38” value is “comparable cytotoxicity to dabrafenib”. The “activity against glioma cell-lines with WT BRAF” value in data set [9] (U118MG, T98G, U87) is given as “no activity”. In addition, the “permeability (Papp)” value on P-glycoprotein (MDR1) (MDR1-MDCK transwell, A–B and B–A directions) lay within 4.9 to 6.4 ×10⁻⁶ cm/s. The “potentiation of brain penetrance with elacridar” value in the data set with P-gp [6] (time not given) is “did display potentiation with elacridar”.
As for `COC(=O)c1cn2c3c(c(N4CCN(C)CC4)c(F)cc3c1=O)OC[C@@H]2C` [compound 7], at P-glycoprotein (MDR1) (MDR1-MDCK transwell), the “efflux ratio (ER)” value worked out at 5.66.
